Data taken from patent US20020094522A1, “Means and methods for monitoring non-nucleoside reverse transcriptase inhibitor antiretroviral therapy and guiding therapeutic decisions in the treatment of HIV/AIDS” (priority 2000, published 2002).

The molecules below were run on RTV-268 (patient sample 97-268; P236L) (assay: Phenotypic susceptibility assay, RTV-268). Details: RTV-268 / patient 268.
Format: cell-based, HIV-1
Text: The resistance test vectors containing a functional luciferase gene cassette were constructed and host cells were transfected with the resistance test vector DNA. The resistant test vectors contained patient-derived reverse transcriptase and protease sequences that were either susceptible or resistant to the antiretroviral agents, such as nucleoside reverse transcriptase inhibitors, non-nucleoside reverse transcriptase inhibitors and protease inhibitors. The resistance test vector viral particles produced by transfecting the resistance test vector DNA into host cells, either in the presence or absence of protease inhibitors, were used to infect target host cells grown either in the absence of NRTI or NNRTI or in the presence of increasing concentrations of the drug. The amount of luciferase activity produced in infected target host cells in the presence of drug was compared to the amount of luciferase produced in infected target host cells in the absence of drug. Drug resistance was measured as the amount of drug required to inhibit by 50% the luciferase activity detected in the absence of drug (inhibitory concentration 50%, IC50). The IC50 values were determined by plotting percent drug inhibition vs. log10 drug concentration.
Host cells were seeded in 10-cm-diameter dishes and were transfected several days after plating with resistance test vector plasmid DNA and the envelope expression vector. Transfections were performed using a calcium-phosphate precipitation procedure. The cell culture media containing the DNA precipitate was replaced with fresh medium, from one to 24 hours, after transfection. Cell culture media containing resistance test vector viral particles was harvested one to four days after transfection and was passed through a […] filter before being stored at −80° C. HIV capsid protein (p24) levels in the harvested cell culture media were determined by an EIA method as described by the manufacturer (SIAC; Frederick, Md.). Before infection, target cells (293 and 293/T) were plated in cell culture media. Control infections were performed using cell culture media from mock transfections (no DNA) or transfections containing the resistance test vector plasmid DNA without the envelope expression plasmid. One to three or more days after infection the media was removed and cell lysis buffer (Promega) was added to each well. […] The inhibitory effect of the drug was determined using the following equation: […]
where RLUluc [drug] is the relative light unit of luciferase activity in infected cells in the presence of drug and RLUluc is the Relative Light Unit of luciferase activity in infected cells in the absence of drug. IC50 values were obtained from the sigmoidal curves that were generated from the data by plotting the percent inhibition of luciferase activity vs. the log10 drug concentration.
A resistance test vector was constructed as described in Example 1 from a patient sample designated 97-268. […] Isolation of viral RNA and RT/PCR was used to generate a patient derived segment that comprised viral sequences coding for all of PR and amino acids 1-313 of RT. The patient derived segment was inserted into a indicator gene viral vector to generate a resistance test vector designated RTV-268. RTV-268 was then tested using the phenotypic susceptibility assay to determine accurately and quantitatively the level of susceptibility to a panel of anti-retroviral drugs. […] An IC50 was determined for each drug tested. Susceptibility of the patient virus to each drug was examined and compared to the susceptibility of a reference virus. […] The sample was examined further for genotypic changes associated with the pattern of susceptibility.

Compound	susceptibility/resistance compared to reference virus
Cc1cn([C@H]2C=C[C@@H](CO)O2)c(=O)[nH]c1=O [d4T]	slight shifts in susceptibility
Nc1ccn([C@H]2CC[C@@H](CO)O2)c(=O)n1 [ddC]	slight shifts in susceptibility
Nc1ccn([C@@H]2CS[C@H](CO)O2)c(=O)n1 [3TC]	significant resistance
O=c1[nH]cnc2c1ncn2[C@H]1CC[C@@H](CO)O1 [ddI]	slight shifts in susceptibility
Cc1cn([C@H]2C[C@H](N=[N+]=[N-])[C@@H](CO)O2)c(=O)[nH]c1=O [AZT]	significant resistance

These molecules were tested on T66I integrase site-directed mutant resistance test vector (assay: Phenotypic susceptibility assay, T66I integrase mutant vector). Details: T66I integrase mutant.
Format: cell-based, HIV
Method: Transfections were performed using a calcium-phosphate precipitation procedure. […] Cell lysates were assayed for luciferase activity (FIG. 3).
The drug inhibition curves are shown in (FIG. 3).
A resistance test vector containing the threonine to isoleucine mutation at position 66 of the integrase protein (T66I) was constructed and tested using the phenotypic assay described earlier.

Compound	reduction in susceptibility compared to wild type control RTV [fold]
O=C(O)C(=O)CC(=O)c1cccn1Cc1ccc(F)cc1 [L-731,988]	4.7
